Experimental data taken from PMC6332448, “SAR Studies Leading to the Identification of a Novel Series of Metallo-β-lactamase Inhibitors for the Treatment of Carbapenem-Resistant Enterobacteriaceae Infections That Display Efficacy in an Animal Infection Model” (ACS Infectious Diseases, 2018).

Target: VIM-1 (Pseudomonas aeruginosa, UniProt A0A0F7KYQ8)
Test: biochemical
Assay type: biochemical
Details: 300 μM imipenem, 10 mM HEPES pH 7.5, 25 °C; average of at least two independent assays; read-out: VIM-1 IC50

SMILES | IC50 [µM]
CCCCC(=O)Nc1cccnc1C(=O)O [Compound 20] | > 200
CS(=O)(=O)Nc1cccnc1C(=O)O [Compound 31] | > 200
CCCCNC(=O)c1cccc(C(=O)O)n1 [Compound 49] | > 200
O=C(O)c1ccc(NS(=O)(=O)c2ccccc2)cn1 [Compound 59] | 109
O=C(O)c1cc(NS(=O)(=O)Cc2ccccc2)ccn1 [Compound 54] | > 200
O=C(O)c1ncccc1NS(=O)(=O)c1ccccc1Cl [Compound 34] | > 200
N#Cc1cccc(S(=O)(=O)Nc2cccnc2C(=O)O)c1 [Compound 33] | > 200
O=C(Cc1ccccc1)Nc1ccc(C(=O)O)nc1 [Compound 56] | > 200
O=C(O)c1cccc(C(=O)NCc2nccs2)n1 [Compound 48] | > 200
CS(=O)(=O)Nc1cccc(C(=O)O)n1 [Compound 47] | > 200
O=C(O)c1ncccc1NS(=O)(=O)Cc1ccc([N+](=O)[O-])cc1 [Compound 44] | > 200
O=C(O)c1cccc(NS(=O)(=O)Cc2ccccc2)n1 [Compound 46] | > 200
O=C(Cc1c(Cl)cccc1Cl)Nc1cccc(C(=O)O)n1 [Compound 27] | > 200
O=C(O)c1ccc(NS(=O)(=O)Cc2ccccc2)cn1 [Compound 58] | > 200
O=C(O)c1cccc(NC(=O)c2cocn2)n1 [Compound 25] | > 200
CCCCC(=O)Nc1cccc(C(=O)O)n1 [Compound 26] | > 200
O=C(Cc1ccc(Cl)c(Cl)c1)Nc1cccc(C(=O)O)n1 [Compound 28] | > 200
O=C(O)c1ncccc1NS(=O)(=O)c1ccc(F)cc1 [Compound 35] | > 200
O=C(O)c1ncccc1NS(=O)(=O)Cc1ccc(Cl)cc1 [Compound 42] | 88.4
O=C(Cc1ccc(F)cc1)Nc1ccc(C(=O)O)nc1 [Compound 57] | > 200
O=C(CCc1ccccc1)Nc1cccnc1C(=O)O [Compound 19] | > 200
O=C(O)c1ncccc1NS(=O)(=O)Cc1cccc(F)c1 [Compound 36] | 108
O=C(Cc1cccs1)Nc1ccnc(C(=O)O)c1 [Compound 53] | > 200

Same assay, conditions: tested up to 200 μM

SMILES | inhibition of VIM-1, in words
O=C(O)c1cc2ccccc2cn1 [Compound 11] | no inhibition

Tested on: VIM-1-producing strain Klebsiella pneumoniae NTBC055
Test: Whole-cell meropenem potentiation, CLSI broth microdilution MIC
Assay type: cell-based
Details: Klebsiella pneumoniae; no inhibitor; K. pneumoniae NTBC055 (VIM-1)
Description: (§1) Minimal inhibitory concentrations (MIC) were determined using the Clinical Laboratory Standards Institute (CLSI) broth microdilution procedure. MBL-positive Enterobacteriaceae clinical isolates tested in the susceptibility study included NDM-1-producing strain E. coli NTBC121, VIM-1-producing strain K. pneumoniae NTBC055, and IMP-1-producing strain K. pneumoniae NTBC062. (Individual MICs for all strains tested are presented in Table 2 and Table 1 in the Supporting Information).

SMILES | MIC [µg/mL]
C[C@@H](O)[C@H]1C(=O)N2C(C(=O)O)=C(S[C@@H]3CN[C@H](C(=O)N(C)C)C3)[C@H](C)[C@H]12 [meropenem, reference compound] | 16

Same assay, conditions: no inhibitor; K. pneumoniae NTBC055 (VIM-1)

SMILES | MIC meropenem (no inhibitor) vs NTBC055 [µg/mL]
C[C@@H](O)[C@H]1C(=O)N2C(C(=O)O)=C(S[C@@H]3CN[C@H](C(=O)N(C)C)C3)[C@H](C)[C@H]12 [meropenem, reference compound] | 16

Tested on: NDM-1-producing strain Escherichia coli NTBC121
Test: as above
Assay type: cell-based
Details: Escherichia coli; no inhibitor; E. coli NTBC121 (NDM-1)
Description: as §1

SMILES | MIC [µg/mL]
C[C@@H](O)[C@H]1C(=O)N2C(C(=O)O)=C(S[C@@H]3CN[C@H](C(=O)N(C)C)C3)[C@H](C)[C@H]12 [meropenem, reference compound] | 32

Same assay, conditions: no inhibitor; E. coli NTBC121 (NDM-1)

SMILES | MIC meropenem (no inhibitor) vs NTBC121 [µg/mL]
C[C@@H](O)[C@H]1C(=O)N2C(C(=O)O)=C(S[C@@H]3CN[C@H](C(=O)N(C)C)C3)[C@H](C)[C@H]12 [meropenem, reference compound] | 32

Target: IMP-1 (Serratia marcescens, UniProt P52699)
Test: biochemical
Assay type: biochemical
Details: 300 μM imipenem, 10 mM HEPES pH 7.5, 25 °C; average of at least two independent assays; read-out: IMP-1 IC50

Sequence of IMP-1 (P52699 19-246, looked up, species assumed): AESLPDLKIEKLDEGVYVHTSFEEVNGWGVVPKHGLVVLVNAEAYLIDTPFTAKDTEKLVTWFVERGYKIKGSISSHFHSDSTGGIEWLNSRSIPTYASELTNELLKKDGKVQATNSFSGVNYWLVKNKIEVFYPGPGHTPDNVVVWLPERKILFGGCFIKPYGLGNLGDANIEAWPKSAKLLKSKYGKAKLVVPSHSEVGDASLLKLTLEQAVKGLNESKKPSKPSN

SMILES | IC50 [µM]
CCCCC(=O)Nc1cccnc1C(=O)O [Compound 20] | 157
CS(=O)(=O)Nc1cccnc1C(=O)O [Compound 31] | > 200
CCCCNC(=O)c1cccc(C(=O)O)n1 [Compound 49] | > 200
O=C(O)c1ccc(NS(=O)(=O)c2ccccc2)cn1 [Compound 59] | 114
O=C(O)c1cc(NS(=O)(=O)Cc2ccccc2)ccn1 [Compound 54] | > 200
O=C(O)c1ncccc1NS(=O)(=O)c1ccccc1Cl [Compound 34] | > 200
N#Cc1cccc(S(=O)(=O)Nc2cccnc2C(=O)O)c1 [Compound 33] | > 200
O=C(Cc1ccccc1)Nc1ccc(C(=O)O)nc1 [Compound 56] | > 200
O=C(O)c1cccc(C(=O)NCc2nccs2)n1 [Compound 48] | > 200
CS(=O)(=O)Nc1cccc(C(=O)O)n1 [Compound 47] | > 200
O=C(O)c1ncccc1NS(=O)(=O)Cc1ccc([N+](=O)[O-])cc1 [Compound 44] | > 200
O=C(O)c1cccc(NS(=O)(=O)Cc2ccccc2)n1 [Compound 46] | > 200
O=C(Cc1c(Cl)cccc1Cl)Nc1cccc(C(=O)O)n1 [Compound 27] | 80
O=C(O)c1ccc(NS(=O)(=O)Cc2ccccc2)cn1 [Compound 58] | > 200
O=C(O)c1cccc(NC(=O)c2cocn2)n1 [Compound 25] | > 200
CCCCC(=O)Nc1cccc(C(=O)O)n1 [Compound 26] | > 200
O=C(Cc1ccc(Cl)c(Cl)c1)Nc1cccc(C(=O)O)n1 [Compound 28] | 82.2
O=C(O)c1ncccc1NS(=O)(=O)c1ccc(F)cc1 [Compound 35] | > 200
O=C(O)c1ncccc1NS(=O)(=O)Cc1ccc(Cl)cc1 [Compound 42] | 146
O=C(Cc1ccc(F)cc1)Nc1ccc(C(=O)O)nc1 [Compound 57] | > 200
O=C(CCc1ccccc1)Nc1cccnc1C(=O)O [Compound 19] | 34.1
O=C(O)c1ncccc1NS(=O)(=O)Cc1cccc(F)c1 [Compound 36] | 152
O=C(Cc1cccs1)Nc1ccnc(C(=O)O)c1 [Compound 53] | > 200

Same assay, conditions: tested up to 200 μM

SMILES | inhibition of IMP-1, in words
O=C(O)c1cc2ccccc2cn1 [Compound 11] | no inhibition

Target: NDM-1 (Klebsiella pneumoniae, UniProt C7C422)
Test: biochemical
Assay type: biochemical
Details: 300 μM imipenem, 10 mM HEPES pH 7.5, 25 °C; average of at least two independent assays; read-out: NDM-1 IC50

Sequence of NDM-1 (C7C422 29-270, looked up, species assumed): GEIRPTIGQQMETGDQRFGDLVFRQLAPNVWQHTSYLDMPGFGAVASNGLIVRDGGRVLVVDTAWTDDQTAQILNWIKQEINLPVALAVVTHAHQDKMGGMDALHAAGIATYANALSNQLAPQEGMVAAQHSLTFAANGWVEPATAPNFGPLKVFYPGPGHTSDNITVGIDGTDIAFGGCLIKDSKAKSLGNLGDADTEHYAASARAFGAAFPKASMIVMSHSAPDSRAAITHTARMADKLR

SMILES | IC50 [µM]
CCCCC(=O)Nc1cccnc1C(=O)O [Compound 20] | 11.1
CS(=O)(=O)Nc1cccnc1C(=O)O [Compound 31] | 68.8
CCCCNC(=O)c1cccc(C(=O)O)n1 [Compound 49] | > 200
O=C(O)c1ccc(NS(=O)(=O)c2ccccc2)cn1 [Compound 59] | 2.17
O=C(O)c1cc(NS(=O)(=O)Cc2ccccc2)ccn1 [Compound 54] | 65
O=C(O)c1ncccc1NS(=O)(=O)c1ccccc1Cl [Compound 34] | > 200
N#Cc1cccc(S(=O)(=O)Nc2cccnc2C(=O)O)c1 [Compound 33] | 148
O=C(Cc1ccccc1)Nc1ccc(C(=O)O)nc1 [Compound 56] | 21.4
O=C(O)c1cccc(C(=O)NCc2nccs2)n1 [Compound 48] | > 200
CS(=O)(=O)Nc1cccc(C(=O)O)n1 [Compound 47] | 32.8
O=C(O)c1ncccc1NS(=O)(=O)Cc1ccc([N+](=O)[O-])cc1 [Compound 44] | 120
O=C(O)c1cccc(NS(=O)(=O)Cc2ccccc2)n1 [Compound 46] | 43.7
O=C(Cc1c(Cl)cccc1Cl)Nc1cccc(C(=O)O)n1 [Compound 27] | > 200
O=C(O)c1ccc(NS(=O)(=O)Cc2ccccc2)cn1 [Compound 58] | 3.99
O=C(O)c1cccc(NC(=O)c2cocn2)n1 [Compound 25] | 55.9
CCCCC(=O)Nc1cccc(C(=O)O)n1 [Compound 26] | 19.4
O=C(Cc1ccc(Cl)c(Cl)c1)Nc1cccc(C(=O)O)n1 [Compound 28] | 3.56
O=C(O)c1ncccc1NS(=O)(=O)c1ccc(F)cc1 [Compound 35] | 52.1
O=C(O)c1ncccc1NS(=O)(=O)Cc1ccc(Cl)cc1 [Compound 42] | 18.4
O=C(Cc1ccc(F)cc1)Nc1ccc(C(=O)O)nc1 [Compound 57] | 27.9
O=C(CCc1ccccc1)Nc1cccnc1C(=O)O [Compound 19] | 20.3
O=C(O)c1ncccc1NS(=O)(=O)Cc1cccc(F)c1 [Compound 36] | > 200
O=C(Cc1cccs1)Nc1ccnc(C(=O)O)c1 [Compound 53] | 43

Same assay, conditions: tested up to 200 μM

SMILES | inhibition of NDM-1, in words
O=C(O)c1cc2ccccc2cn1 [Compound 11] | modest inhibition

Tested on: IMP-1-producing strain K. pneumoniae NTBC062
Test: Whole-cell meropenem potentiation, CLSI broth microdilution MIC
Assay type: cell-based, Klebsiella pneumoniae
Details: Klebsiella pneumoniae; no inhibitor; K. pneumoniae NTBC062 (IMP-1)
Description: as §1

SMILES | MIC [µg/mL]
C[C@@H](O)[C@H]1C(=O)N2C(C(=O)O)=C(S[C@@H]3CN[C@H](C(=O)N(C)C)C3)[C@H](C)[C@H]12 [meropenem, reference compound] | 4

Same assay, conditions: no inhibitor; K. pneumoniae NTBC062 (IMP-1)

SMILES | MIC meropenem (no inhibitor) vs NTBC062 [µg/mL]
C[C@@H](O)[C@H]1C(=O)N2C(C(=O)O)=C(S[C@@H]3CN[C@H](C(=O)N(C)C)C3)[C@H](C)[C@H]12 [meropenem, reference compound] | 4
